Experimental data as given in ChEMBL document CHEMBL4190389, “Synthesis and activity of di- or trisubstituted N-(phenoxyalkyl)- or N-{2-[2-(phenoxy)ethoxy]ethyl}piperazine derivatives on the central nervous system” (Bioorg Med Chem Lett, 2018).

Legend:
[1] = biological target: T1, 5-hydroxytryptamine receptor 2A (Homo sapiens, UniProt P28223); assay: Displacement of [3H]-ketanserin from recombinant human 5-HT2A receptor after 60 mins by liquid scintillation counting method
[2] = biological target: T2, 5-hydroxytryptamine receptor 1A (Rattus norvegicus, UniProt P19327); assay: Displacement of [3H]8-OH-DPAT from Wistar rat 5-HT1A receptor after 20 mins by liquid scintillation counting method
T2 sequence (P19327 whole entry): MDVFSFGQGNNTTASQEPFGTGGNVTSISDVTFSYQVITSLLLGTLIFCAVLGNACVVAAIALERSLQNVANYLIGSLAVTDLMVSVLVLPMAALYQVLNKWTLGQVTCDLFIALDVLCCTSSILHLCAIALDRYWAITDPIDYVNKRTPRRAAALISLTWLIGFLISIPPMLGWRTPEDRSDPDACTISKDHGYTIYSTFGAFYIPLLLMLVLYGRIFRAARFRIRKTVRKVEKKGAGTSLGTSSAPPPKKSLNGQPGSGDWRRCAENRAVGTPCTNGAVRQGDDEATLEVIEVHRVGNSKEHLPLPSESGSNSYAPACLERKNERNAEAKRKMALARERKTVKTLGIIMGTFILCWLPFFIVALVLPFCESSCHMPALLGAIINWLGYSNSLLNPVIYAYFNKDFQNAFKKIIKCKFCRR

[3] = biological target: T3, Adrenergic receptor alpha-2 (Rattus norvegicus, UniProt P22086+P19328+P22909); assay: Displacement of [3H]clonidine from rat cerebral cortex adrenergic receptor alpha2 by liquid scintillation counting method
T3 sequence (P22086 whole entry): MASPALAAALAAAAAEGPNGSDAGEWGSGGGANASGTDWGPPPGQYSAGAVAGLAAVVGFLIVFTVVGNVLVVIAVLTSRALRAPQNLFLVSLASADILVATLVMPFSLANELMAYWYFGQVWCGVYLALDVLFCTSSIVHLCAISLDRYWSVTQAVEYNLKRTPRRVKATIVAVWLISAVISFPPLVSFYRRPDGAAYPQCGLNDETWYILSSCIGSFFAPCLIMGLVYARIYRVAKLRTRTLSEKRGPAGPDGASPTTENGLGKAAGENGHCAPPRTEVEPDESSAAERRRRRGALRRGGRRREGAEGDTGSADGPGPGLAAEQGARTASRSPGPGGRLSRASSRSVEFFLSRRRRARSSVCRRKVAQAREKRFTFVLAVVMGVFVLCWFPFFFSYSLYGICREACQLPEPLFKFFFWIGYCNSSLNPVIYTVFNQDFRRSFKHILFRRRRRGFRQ
T3 sequence (P19328 whole entry): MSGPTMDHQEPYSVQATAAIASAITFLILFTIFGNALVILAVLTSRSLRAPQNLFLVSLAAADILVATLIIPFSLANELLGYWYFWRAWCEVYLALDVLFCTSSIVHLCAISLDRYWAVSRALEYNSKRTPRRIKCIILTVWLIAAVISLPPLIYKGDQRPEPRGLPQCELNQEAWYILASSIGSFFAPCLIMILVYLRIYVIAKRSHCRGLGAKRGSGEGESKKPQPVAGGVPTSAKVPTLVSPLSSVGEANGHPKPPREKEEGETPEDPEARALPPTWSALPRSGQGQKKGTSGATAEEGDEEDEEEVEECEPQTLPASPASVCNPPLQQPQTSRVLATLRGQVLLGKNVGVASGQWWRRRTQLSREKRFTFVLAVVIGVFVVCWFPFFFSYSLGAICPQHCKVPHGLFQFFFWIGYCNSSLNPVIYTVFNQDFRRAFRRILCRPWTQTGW
T3 sequence (P22909 whole entry): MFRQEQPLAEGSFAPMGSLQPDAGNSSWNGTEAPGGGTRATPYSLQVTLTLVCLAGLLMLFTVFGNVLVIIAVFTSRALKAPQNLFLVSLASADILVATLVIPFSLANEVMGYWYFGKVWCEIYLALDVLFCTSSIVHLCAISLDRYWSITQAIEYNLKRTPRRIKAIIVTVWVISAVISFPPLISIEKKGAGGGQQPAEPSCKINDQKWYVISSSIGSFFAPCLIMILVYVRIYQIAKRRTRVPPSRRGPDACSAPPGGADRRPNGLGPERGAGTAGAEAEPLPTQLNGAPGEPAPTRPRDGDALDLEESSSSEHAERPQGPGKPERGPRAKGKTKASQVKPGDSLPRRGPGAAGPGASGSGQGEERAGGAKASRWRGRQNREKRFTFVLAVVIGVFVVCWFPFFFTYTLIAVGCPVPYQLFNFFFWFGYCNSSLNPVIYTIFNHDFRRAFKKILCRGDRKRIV

[4] = biological target: 5-hydroxytryptamine receptor 7 (Homo sapiens, UniProt P34969); assay: Displacement of [3H]-LSD from recombinant human 5-HT7 receptor after 60 mins by liquid scintillation counting method
D(2) dopamine receptor = D(2) dopamine receptor (Homo sapiens, UniProt P14416); assay: Binding affinity to D2 receptor (unknown origin)
[5] = biological target: T1, 5-hydroxytryptamine receptor 2A; assay: Binding affinity to 5-HT2A receptor (unknown origin)
[6] = biological target: T4, Adrenergic receptor alpha-1 (Rattus norvegicus, UniProt P15823+P23944+P43140); assay: Displacement of [3H]prazosin from rat cerebral cortex adrenergic receptor alpha1 by liquid scintillation counting method
T4 sequence (P15823 whole entry): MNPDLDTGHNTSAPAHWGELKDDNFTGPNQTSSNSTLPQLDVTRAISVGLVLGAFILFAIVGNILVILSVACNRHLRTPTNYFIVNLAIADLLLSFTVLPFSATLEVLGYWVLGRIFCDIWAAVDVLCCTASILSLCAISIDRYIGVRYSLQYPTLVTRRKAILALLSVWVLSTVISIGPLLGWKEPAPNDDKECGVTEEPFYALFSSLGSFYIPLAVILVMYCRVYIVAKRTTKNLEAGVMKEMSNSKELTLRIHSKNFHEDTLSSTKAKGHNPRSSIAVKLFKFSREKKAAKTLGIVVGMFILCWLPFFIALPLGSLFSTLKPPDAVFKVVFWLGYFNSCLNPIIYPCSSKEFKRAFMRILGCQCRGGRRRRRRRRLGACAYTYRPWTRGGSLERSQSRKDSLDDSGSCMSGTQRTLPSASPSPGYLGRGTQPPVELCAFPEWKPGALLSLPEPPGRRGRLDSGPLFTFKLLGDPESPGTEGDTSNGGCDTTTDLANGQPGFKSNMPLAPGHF
T4 sequence (P23944 whole entry): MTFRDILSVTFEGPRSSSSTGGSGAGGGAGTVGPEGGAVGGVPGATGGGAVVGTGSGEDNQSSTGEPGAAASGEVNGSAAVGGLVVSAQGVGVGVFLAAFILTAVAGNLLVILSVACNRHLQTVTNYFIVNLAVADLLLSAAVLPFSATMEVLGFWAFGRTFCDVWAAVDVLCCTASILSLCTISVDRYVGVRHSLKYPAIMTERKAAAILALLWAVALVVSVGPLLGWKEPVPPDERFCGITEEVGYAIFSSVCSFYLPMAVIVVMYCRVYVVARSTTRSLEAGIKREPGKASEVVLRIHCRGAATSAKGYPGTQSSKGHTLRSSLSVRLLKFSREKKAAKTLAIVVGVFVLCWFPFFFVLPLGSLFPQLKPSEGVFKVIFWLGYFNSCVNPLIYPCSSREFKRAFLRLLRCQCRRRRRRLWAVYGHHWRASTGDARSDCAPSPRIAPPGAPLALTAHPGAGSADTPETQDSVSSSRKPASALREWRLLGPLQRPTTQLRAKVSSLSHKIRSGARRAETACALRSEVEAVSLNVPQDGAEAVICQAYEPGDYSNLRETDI
T4 sequence (P43140 whole entry): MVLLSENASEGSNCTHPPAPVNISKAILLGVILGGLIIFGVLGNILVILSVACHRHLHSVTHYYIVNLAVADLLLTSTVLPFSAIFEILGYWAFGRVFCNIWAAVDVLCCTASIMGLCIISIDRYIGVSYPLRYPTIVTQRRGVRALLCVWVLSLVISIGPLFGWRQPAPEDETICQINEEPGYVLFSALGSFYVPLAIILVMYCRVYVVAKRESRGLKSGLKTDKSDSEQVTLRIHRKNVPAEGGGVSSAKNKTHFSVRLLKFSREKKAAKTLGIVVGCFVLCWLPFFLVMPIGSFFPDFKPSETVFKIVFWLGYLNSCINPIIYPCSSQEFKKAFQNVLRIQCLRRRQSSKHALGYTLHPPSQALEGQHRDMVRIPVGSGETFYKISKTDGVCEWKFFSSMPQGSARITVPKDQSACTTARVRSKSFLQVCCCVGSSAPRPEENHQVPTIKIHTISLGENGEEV

T1 sequence (P28223 whole entry): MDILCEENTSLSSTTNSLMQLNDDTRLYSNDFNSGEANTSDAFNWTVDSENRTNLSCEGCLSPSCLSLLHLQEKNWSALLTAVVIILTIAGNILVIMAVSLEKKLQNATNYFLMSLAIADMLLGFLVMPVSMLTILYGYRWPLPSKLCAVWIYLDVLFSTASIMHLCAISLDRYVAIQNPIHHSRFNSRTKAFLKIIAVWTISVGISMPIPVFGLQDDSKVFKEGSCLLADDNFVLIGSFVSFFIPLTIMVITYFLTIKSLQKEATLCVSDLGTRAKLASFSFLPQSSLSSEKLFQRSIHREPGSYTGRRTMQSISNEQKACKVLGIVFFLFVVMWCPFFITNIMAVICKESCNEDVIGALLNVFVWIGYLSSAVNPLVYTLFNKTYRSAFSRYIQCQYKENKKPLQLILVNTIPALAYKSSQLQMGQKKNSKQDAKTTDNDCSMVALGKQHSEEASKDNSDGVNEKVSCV
5-hydroxytryptamine receptor 7, sequence (P34969 whole entry): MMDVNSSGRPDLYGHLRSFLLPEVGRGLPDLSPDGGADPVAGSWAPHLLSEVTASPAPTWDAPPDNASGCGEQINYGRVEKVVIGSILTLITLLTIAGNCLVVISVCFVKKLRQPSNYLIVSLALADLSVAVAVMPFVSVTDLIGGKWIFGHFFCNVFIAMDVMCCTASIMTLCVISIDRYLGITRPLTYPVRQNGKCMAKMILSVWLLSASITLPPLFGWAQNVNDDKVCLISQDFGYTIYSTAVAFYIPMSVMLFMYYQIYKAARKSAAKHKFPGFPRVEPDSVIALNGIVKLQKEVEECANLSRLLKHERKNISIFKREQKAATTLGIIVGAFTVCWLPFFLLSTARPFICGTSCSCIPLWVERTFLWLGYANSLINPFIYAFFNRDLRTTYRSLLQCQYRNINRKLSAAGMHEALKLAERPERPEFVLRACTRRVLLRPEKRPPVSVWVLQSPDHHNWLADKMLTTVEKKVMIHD
D(2) dopamine receptor, sequence (P14416 whole entry): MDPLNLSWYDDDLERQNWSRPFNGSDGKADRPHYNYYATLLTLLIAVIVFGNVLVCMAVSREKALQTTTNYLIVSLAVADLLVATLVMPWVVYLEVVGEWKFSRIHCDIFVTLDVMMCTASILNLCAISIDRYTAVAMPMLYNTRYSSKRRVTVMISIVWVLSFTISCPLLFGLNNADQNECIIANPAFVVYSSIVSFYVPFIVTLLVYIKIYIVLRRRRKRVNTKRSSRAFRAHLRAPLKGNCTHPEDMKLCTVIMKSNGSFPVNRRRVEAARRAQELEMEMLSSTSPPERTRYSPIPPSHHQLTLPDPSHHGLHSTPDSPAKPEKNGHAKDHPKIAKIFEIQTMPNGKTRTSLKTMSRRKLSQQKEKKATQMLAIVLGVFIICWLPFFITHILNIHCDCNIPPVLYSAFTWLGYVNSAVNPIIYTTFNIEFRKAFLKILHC

| Structure (SMILES) | Ki [1] | Ki [2] | Ki [3] | Ki [4] | Ki (D(2) dopamine receptor) | Ki [5] | Ki [6] |
| --- | --- | --- | --- | --- | --- | --- | --- |
| COc1ccccc1N1CCN(CCCOc2c(C)cccc2C)CC1.Cl | 192 nM | 0.7 nM | 341 nM | 26 nM |  |  |  |
| OCCOCCN1CCN(C(c2ccccc2)c2ccc(Cl)cc2)CC1 (configuration not stated) [HYDROXYZINE] |  |  |  |  | 378 nM | 50 nM | 300 nM |
